# Test results from ChEMBL document CHEMBL4177767, “Discovery of N2-(4-Amino-cyclohexyl)-9-cyclopentyl- N6-(4-morpholin-4-ylmethyl-phenyl)- 9H-purine-2,6-diamine as a Potent FLT3 Kinase Inhibitor for Acute Myeloid Leukemia with FLT3 Mutations” (J Med Chem, 2018).
# Activity calls are given as the source filed them. The calls are words filed in the database; no cut-off is given here.
# Key:
# [1] = target: Receptor-type tyrosine-protein kinase FLT3 (Homo sapiens, UniProt P36888, ITD); assay: biochemical; format: cell-based, Sf9
# Description: Inhibition of N-terminal GST/His6-fused recombinant human FLT3 (R571 to S993 residues) ITD mutant expressed in Sf9 insect cells using poly (Ala,Glu,Lys,Tyr) 6:2:5:1 hydrobromide as substrate in presence of [gamma-33P]ATP
# MV4-11 [2] = assay: Growth inhibition of human MV4-11 cells after 72 hrs by calcein AM dye-based fluorescence assay; format: functional; settings: MV4-11, 72 h
# [3] = target: Receptor-type tyrosine-protein kinase FLT3 (Homo sapiens, UniProt P36888, D835Y); assay: biochemical; format: cell-based, Sf9
# Description: Inhibition of N-terminal GST/His6-fused recombinant human FLT3 (R571 to S993 residues) D835Y mutant expressed in Sf9 insect cells using poly (Ala,Glu,Lys,Tyr) 6:2:5:1 hydrobromide as substrate in presence of [gamma-33P]ATP
# MV4-11 [4] = assay: Cell cycle arrest in human MV4-11 cells assessed as accumulation at sub-G1 phase at 0.01 nM after 24 hrs by propidium iodide staining-based flow cytometric method (reference value: 9.2%); format: functional
# MV4-11 [5] = assay: Cell cycle arrest in human MV4-11 cells assessed as accumulation at G1 phase at 0.01 nM after 24 hrs by propidium iodide staining-based flow cytometric method (reference value: 56%); format: functional
# MV4-11 [6] = assay: Cell cycle arrest in human MV4-11 cells assessed as accumulation at S phase at 0.1 nM after 24 hrs by propidium iodide staining-based flow cytometric method (reference value: 28.1%); format: functional
# MV4-11 [7] = assay: Cell cycle arrest in human MV4-11 cells assessed as accumulation at sub-G1 phase at 1 nM after 24 hrs by propidium iodide staining-based flow cytometric method (reference value: 9.2%); format: functional
# MV4-11 [8] = assay: Cell cycle arrest in human MV4-11 cells assessed as accumulation at G1 phase at 1 nM after 24 hrs by propidium iodide staining-based flow cytometric method (reference value: 56%); format: functional
# MV4-11 [9] = assay: Cell cycle arrest in human MV4-11 cells assessed as accumulation at S phase at 1 nM after 24 hrs by propidium iodide staining-based flow cytometric method (reference value: 28.1%); format: functional
# MV4-11 [10] = assay: Cell cycle arrest in human MV4-11 cells assessed as accumulation at sub-G1 phase at 10 nM after 24 hrs by propidium iodide staining-based flow cytometric method (reference value: 9.2%); format: functional
# MV4-11 [11] = assay: Cell cycle arrest in human MV4-11 cells assessed as accumulation at G1 phase at 10 nM after 24 hrs by propidium iodide staining-based flow cytometric method (reference value: 56%); format: functional
# MV4-11 [12] = assay: Cell cycle arrest in human MV4-11 cells assessed as accumulation at G2/M phase at 10 nM after 24 hrs by propidium iodide staining-based flow cytometric method (reference value: 15.9%); format: functional
# MV4-11 [13] = assay: Cell cycle arrest in human MV4-11 cells assessed as accumulation at sub-G1 phase at 100 nM after 24 hrs by propidium iodide staining-based flow cytometric method (reference value: 9.2%); format: functional
# MV4-11 [14] = assay: Cell cycle arrest in human MV4-11 cells assessed as accumulation at G1 phase at 100 nM after 24 hrs by propidium iodide staining-based flow cytometric method (reference value: 56%); format: functional
# MV4-11 [15] = assay: Cell cycle arrest in human MV4-11 cells assessed as accumulation at S phase at 100 nM after 24 hrs by propidium iodide staining-based flow cytometric method (reference value: 28.1%); format: functional
# MV4-11 [16] = assay: Cell cycle arrest in human MV4-11 cells assessed as accumulation at G2/M phase at 100 nM after 24 hrs by propidium iodide staining-based flow cytometric method (reference value: 15.9%); format: functional
# MV4-11 [17] = assay: Induction of apoptosis in human MV4-11 cells assessed as increase in PARP1 cleavage at 10 to 100 nM after 24 hrs by immunoblot method; format: functional, cell-based
# Rattus norvegicus [18] = assay: Toxicity in Wistar rat assessed as mortality at 100 mg/kg, iv measured over 15 days; format: organism-based; settings: in vivo, 360 h
# Rattus norvegicus [19] = assay: Toxicity in Wistar rat assessed as pathological macroscopic changes at 100 mg/kg, iv after 15 days; format: organism-based; settings: in vivo, 360 h
# Mus musculus [20] = assay: In vivo inhibition of FLT3 ITD mutant in human MV4-11 cells xenografted in athymic nu/nu mouse assessed as decrease in STAT5 phosphorylation at Y694 at 10 mg/kg, ip after 24 hrs by immunoblot method relative to control; format: functional; settings: MV4-11, ip
# [21] = test system: Receptor-type tyrosine-protein kinase FLT3 (Homo sapiens), P36888 [UNDEFINED MUTATION]
# Description: Inhibition of FLT3 ITD mutant (unknown origin) transfected in mouse BA/F3 cells assessed as growth inhibition after 72 hrs by calcein AM dye-based fluorescence assay
# [22] = target: Macrophage colony-stimulating factor 1 receptor (Homo sapiens) (UniProt P07333); settings: 10 nM
# Description: Inhibition of human N-terminal GST-tagged FMS expressed in baculovirus expression system at 10 nM relative to control
# [23] = target: Platelet-derived growth factor receptor beta (Homo sapiens) (UniProt P09619); settings: 10 nM
# Description: Inhibition of human N-terminal GST-tagged PDGFRbeta cytoplasmic domain expressed in baculovirus expression system at 10 nM relative to control
# [24] = target: Serine/threonine-protein kinase SIK2 (Homo sapiens) (UniProt Q9H0K1); settings: 10 nM
# Description: Inhibition of full length human N-terminal GST-tagged QIK expressed in baculovirus expression system at 10 nM relative to control
# [25] = target: Calcium/calmodulin-dependent protein kinase type II subunit delta (Homo sapiens) (UniProt Q13557); settings: 10 nM
# Description: Inhibition of full length human N-terminal GST-tagged CaMK2delta expressed in baculovirus expression system at 10 nM relative to control
# [26] = target: Tyrosine-protein kinase Yes (Homo sapiens) (UniProt P07947); settings: 10 nM
# Description: Inhibition of human full length N-terminal GST-tagged Yes expressed in baculovirus expression system at 10 nM relative to control
# [27] = target: Calcium/calmodulin-dependent protein kinase type II subunit gamma (Homo sapiens) (UniProt Q13555); settings: 10 nM
# Description: Inhibition of full length human N-terminal GST-tagged CAMK2gamma expressed in baculovirus expression system at 10 nM relative to control
# [28] = target: MAP kinase-interacting serine/threonine-protein kinase 2 (Homo sapiens) (UniProt Q9HBH9); settings: 10 nM
# Description: Inhibition of full length human N-terminal GST-tagged MNK2 expressed in baculovirus expression system at 10 nM relative to control
# [29] = target: Activated CDC42 kinase 1 (Homo sapiens) (UniProt Q07912); settings: 10 nM
# Description: Inhibition of human N-terminal GST-tagged ACK catalytic domain expressed in baculovirus expression system at 10 nM relative to control
# [30] = target: Proto-oncogene tyrosine-protein kinase Src (Homo sapiens) (UniProt P12931); settings: 10 nM
# Description: Inhibition of full length human N-terminal GST-tagged SRC expressed in baculovirus expression system at 10 nM relative to control
# [31] = test system: Receptor-type tyrosine-protein kinase FLT3 (Homo sapiens), P36888 [UNDEFINED MUTATION]; settings: MV4-11, at 1 nM
# Description: Inhibition of FLT3 ITD mutant autophosphorylation at Y842 in human MV4-11 cells at 1 nM after 1 hr by immunoblot analysis
# K562 = assay: cells; settings: Homo sapiens, K562, 72 h
# MOLM-13 = assay: cells; settings: Homo sapiens, MOLM-13, 72 h
# U-937 = assay: cells; settings: Homo sapiens, U-937, 72 h
# HCC827 = assay: cells; settings: Homo sapiens, HCC827, 72 h
# in vitro [32] = settings: human, HUVEC
# in vitro [33] = settings: mouse, BA/F3 cells
# Mus musculus [34] = species on record: Mus musculus; assay: animal or person; settings: MV4-11, ip, 2 h, read-out: INH
# Sequence of Tyrosine-protein kinase Yes (Homo sapiens) (P07947 2-543 limits assumed): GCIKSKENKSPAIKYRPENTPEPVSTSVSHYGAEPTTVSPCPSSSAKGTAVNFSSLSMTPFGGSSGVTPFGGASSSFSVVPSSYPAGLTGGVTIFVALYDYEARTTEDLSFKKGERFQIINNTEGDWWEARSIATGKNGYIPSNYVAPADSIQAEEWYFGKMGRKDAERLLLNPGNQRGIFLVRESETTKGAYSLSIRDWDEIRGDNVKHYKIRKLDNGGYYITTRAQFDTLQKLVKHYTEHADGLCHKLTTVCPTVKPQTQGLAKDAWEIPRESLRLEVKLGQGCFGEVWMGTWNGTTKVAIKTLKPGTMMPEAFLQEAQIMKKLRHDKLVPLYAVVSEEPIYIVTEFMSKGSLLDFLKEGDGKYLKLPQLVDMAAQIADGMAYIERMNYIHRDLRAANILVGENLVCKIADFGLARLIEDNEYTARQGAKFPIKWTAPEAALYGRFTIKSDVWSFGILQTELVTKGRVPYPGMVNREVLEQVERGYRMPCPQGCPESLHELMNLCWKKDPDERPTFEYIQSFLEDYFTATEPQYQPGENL
# Sequence of Calcium/calmodulin-dependent protein kinase type II subunit gamma (Homo sapiens) (Q13555 whole entry): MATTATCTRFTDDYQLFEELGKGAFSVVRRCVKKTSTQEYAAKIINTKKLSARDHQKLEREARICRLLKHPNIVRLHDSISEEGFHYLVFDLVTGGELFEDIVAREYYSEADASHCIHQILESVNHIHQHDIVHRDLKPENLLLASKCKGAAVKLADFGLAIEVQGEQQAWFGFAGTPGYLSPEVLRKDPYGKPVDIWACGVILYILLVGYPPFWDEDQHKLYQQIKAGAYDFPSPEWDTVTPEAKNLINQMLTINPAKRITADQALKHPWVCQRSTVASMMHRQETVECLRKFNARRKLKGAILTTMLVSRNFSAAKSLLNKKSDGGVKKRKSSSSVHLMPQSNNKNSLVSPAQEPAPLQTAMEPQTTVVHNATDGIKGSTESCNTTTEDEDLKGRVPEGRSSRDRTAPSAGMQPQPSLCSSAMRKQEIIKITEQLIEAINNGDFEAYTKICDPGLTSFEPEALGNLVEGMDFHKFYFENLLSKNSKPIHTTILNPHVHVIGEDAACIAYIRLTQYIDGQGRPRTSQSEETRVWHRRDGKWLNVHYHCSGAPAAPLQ
# Sequence of MAP kinase-interacting serine/threonine-protein kinase 2 (Homo sapiens) (Q9HBH9 whole entry, looked up): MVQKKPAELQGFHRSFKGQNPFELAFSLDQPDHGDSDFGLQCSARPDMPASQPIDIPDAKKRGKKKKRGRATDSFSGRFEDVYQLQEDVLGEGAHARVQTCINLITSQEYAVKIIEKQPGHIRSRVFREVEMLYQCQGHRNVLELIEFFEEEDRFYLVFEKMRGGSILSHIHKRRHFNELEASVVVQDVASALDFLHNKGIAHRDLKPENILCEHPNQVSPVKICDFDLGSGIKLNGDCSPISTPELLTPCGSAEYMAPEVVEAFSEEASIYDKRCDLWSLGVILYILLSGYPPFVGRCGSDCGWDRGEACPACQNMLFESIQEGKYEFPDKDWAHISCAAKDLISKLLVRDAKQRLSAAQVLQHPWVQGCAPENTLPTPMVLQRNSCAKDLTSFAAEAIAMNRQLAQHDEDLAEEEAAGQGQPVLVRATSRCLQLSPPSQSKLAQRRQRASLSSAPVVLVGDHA
# Sequence of Activated CDC42 kinase 1 (Homo sapiens) (Q07912 whole entry, looked up): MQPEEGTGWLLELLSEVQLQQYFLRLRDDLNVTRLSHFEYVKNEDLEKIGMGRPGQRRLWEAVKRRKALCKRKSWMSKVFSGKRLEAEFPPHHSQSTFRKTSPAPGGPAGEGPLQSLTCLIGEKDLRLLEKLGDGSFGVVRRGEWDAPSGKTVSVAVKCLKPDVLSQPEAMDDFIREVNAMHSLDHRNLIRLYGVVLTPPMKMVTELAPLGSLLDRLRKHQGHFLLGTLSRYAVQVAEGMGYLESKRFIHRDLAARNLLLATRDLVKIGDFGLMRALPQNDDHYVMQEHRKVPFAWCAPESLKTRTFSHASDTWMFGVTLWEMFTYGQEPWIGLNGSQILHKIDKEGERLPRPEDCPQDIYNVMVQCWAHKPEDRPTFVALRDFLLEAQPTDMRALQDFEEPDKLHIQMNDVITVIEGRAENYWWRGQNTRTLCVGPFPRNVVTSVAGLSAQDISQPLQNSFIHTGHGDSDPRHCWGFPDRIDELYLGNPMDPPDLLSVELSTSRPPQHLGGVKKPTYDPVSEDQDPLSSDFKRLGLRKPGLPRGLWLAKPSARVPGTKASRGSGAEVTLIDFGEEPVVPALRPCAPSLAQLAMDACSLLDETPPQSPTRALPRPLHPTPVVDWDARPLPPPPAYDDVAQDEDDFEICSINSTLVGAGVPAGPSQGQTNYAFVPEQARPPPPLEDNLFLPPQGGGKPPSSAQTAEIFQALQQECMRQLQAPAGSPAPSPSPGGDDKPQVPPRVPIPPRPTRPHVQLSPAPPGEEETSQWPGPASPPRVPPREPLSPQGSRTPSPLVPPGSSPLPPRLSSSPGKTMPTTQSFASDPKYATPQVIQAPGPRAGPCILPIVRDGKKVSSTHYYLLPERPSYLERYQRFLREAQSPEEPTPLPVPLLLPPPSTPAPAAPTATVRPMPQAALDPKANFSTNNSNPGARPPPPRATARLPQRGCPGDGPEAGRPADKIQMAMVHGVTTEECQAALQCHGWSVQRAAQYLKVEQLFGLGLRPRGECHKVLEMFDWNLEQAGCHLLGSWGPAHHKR
# Sequence of Macrophage colony-stimulating factor 1 receptor (Homo sapiens) (P07333 whole entry): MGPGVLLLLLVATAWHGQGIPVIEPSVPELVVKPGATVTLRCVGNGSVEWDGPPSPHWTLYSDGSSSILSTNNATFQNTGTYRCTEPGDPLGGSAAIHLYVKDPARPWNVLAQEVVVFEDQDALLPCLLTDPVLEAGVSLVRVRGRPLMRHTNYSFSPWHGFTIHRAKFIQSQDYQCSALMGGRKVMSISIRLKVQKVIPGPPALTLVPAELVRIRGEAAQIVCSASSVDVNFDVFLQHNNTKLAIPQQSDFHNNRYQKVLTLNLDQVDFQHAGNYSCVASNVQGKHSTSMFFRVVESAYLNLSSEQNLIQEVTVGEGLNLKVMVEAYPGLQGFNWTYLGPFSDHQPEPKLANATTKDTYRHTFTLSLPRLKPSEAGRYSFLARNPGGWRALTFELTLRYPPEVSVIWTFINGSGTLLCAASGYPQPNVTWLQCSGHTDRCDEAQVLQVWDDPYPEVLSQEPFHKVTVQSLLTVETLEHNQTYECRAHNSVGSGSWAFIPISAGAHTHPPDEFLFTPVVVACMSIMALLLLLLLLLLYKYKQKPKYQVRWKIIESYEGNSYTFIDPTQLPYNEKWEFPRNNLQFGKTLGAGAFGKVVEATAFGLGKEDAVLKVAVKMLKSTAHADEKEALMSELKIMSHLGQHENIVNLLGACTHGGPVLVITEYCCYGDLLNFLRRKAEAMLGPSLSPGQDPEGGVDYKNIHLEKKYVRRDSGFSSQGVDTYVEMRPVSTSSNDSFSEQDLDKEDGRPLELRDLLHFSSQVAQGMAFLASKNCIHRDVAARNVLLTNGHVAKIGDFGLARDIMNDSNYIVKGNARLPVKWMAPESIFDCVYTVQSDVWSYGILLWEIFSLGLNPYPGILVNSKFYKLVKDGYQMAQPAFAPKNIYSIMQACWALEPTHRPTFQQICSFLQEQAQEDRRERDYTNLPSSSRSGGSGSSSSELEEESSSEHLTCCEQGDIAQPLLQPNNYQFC
# Sequence of Platelet-derived growth factor receptor beta (Homo sapiens) (P09619 whole entry): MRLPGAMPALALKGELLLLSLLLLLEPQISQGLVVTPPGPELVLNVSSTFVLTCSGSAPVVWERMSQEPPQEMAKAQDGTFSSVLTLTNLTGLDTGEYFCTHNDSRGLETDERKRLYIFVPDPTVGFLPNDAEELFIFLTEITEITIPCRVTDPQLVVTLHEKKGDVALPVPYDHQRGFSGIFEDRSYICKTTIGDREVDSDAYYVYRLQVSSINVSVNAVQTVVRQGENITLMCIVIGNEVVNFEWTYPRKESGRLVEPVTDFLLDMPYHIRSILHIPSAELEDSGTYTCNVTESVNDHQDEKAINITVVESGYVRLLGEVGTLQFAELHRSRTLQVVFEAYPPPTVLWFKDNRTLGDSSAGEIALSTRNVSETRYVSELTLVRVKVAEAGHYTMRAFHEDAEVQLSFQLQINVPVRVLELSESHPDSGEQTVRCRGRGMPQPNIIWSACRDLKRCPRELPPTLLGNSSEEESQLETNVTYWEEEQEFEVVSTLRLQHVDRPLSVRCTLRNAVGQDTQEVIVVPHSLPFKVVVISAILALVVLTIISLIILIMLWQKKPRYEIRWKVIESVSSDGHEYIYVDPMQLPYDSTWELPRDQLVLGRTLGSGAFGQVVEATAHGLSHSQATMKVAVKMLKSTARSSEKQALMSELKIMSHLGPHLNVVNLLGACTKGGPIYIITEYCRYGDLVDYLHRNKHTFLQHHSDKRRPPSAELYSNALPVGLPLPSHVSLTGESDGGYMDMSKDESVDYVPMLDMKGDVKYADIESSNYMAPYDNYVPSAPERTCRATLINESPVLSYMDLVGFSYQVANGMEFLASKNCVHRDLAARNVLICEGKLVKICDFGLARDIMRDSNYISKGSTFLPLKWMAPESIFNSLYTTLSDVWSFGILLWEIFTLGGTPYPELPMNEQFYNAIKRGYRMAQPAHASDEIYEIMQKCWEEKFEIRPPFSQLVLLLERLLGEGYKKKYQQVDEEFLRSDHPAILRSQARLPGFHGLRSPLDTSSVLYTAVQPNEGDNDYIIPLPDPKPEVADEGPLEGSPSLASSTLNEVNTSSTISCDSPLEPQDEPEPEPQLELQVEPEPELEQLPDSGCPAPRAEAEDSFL
compound,measurement,setting,value
N[C@H]1CC[C@H](Nc2nc(Nc3ccc(CN4CCOCC4)cc3)c3ncn(C4CCCC4)c3n2)CC1,IC50,[1],3 nM
same,GI50,MV4-11 [2],2 nM
same,IC50,[3],8 nM
same,Activity,MV4-11 [4],9.9%
same,Activity,MV4-11 [5],5.6%
same,Activity,MV4-11 [6],28%
same,Activity,MV4-11 [7],20.4%
same,Activity,MV4-11 [8],90.3%
same,Activity,MV4-11 [9],8.6%
same,Activity,MV4-11 [10],42.9%
same,Activity,MV4-11 [11],96.5%
same,Activity,MV4-11 [12],0.8%
same,Activity,MV4-11 [13],45.9%
same,Activity,MV4-11 [14],95%
same,Activity,MV4-11 [15],3.8%
same,Activity,MV4-11 [16],1.2%
same,Activity,MV4-11 [17],Active
same,Activity,Rattus norvegicus [18],Non-Toxic
same,Activity,Rattus norvegicus [19],Non-Toxic
same,inhibition in vivo at 10 mg/kg,Mus musculus [20],95%
same,GI50,[21],34 nM
same,inhibition,[22],> 90%
same,inhibition,[23],> 90%
same,inhibition,[24],> 90%
same,inhibition,[25],> 90%
same,inhibition,[26],> 90%
same,inhibition,[27],> 90%
same,inhibition,[28],> 90%
same,inhibition,[29],> 90%
same,inhibition,[30],> 90%
same,inhibition,[31],Active
same,GI50,K562,380 nM
same,GI50,MOLM-13,1 nM
same,GI50,U-937,664 nM
same,GI50,HCC827,327 nM
same,GI50 at 72 h,in vitro [32],5870 nM
same,GI50 at 72 h,in vitro [33],1140 nM
same,inhibition in vivo at 10 mg/kg,Mus musculus [34],95%
